Assay results from patent US20250281649A1, “PROBE DIRECTED TO ENZYME ALDH1A3 AND USE THEREOF IN THE DIAGNOSIS OF GLIOBLASTOMA” (Universita' Degli Studi Del Piemonte Orientale "A. Avogadro", priority 2021, published 2025).
Entries after “also recorded” stand apart in the source; their conditions may differ.

Columns and labels:
[1] = target: T1, ALDH1A1 (Homo sapiens, UniProt P00352); test: IC50 evaluation, NADH formation at 340 nm (Tecan SUNRISE); format: biochemical; details: ALDH1A1; 20 mM acetaldehyde, 500 μM NAD+, 15% DMSO, 2.7 μM isoenzyme; read-out: IC50
T1 construct: His-tag; made in house; host or cells: bacterial cells
T1 sequence (P00352 1-501): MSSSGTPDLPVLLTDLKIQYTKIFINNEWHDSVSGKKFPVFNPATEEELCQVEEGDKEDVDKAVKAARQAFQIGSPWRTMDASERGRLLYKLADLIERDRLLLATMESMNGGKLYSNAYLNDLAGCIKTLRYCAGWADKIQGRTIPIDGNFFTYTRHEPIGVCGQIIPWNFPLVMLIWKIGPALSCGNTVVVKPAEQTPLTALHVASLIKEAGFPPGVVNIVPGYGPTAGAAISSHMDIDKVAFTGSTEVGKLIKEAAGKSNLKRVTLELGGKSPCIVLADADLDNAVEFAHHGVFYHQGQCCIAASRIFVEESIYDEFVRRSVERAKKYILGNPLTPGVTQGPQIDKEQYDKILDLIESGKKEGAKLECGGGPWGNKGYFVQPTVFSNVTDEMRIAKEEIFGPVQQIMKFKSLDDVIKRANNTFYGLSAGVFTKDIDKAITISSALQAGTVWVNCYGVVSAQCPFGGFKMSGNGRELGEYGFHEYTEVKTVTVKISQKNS
Description: (§1) A common protocol to express and purify all three members of the ALDHIA subfamily has been optimized. Briefly, induced cells, collected by centrifugation, were re-suspended in an appropriate volume of lysis buffer (50 mM Na2HPO4, 300 mM NaCl, 1 mM β-mercaptoethanol, 20 mM imidazole, pH 7.5) added of benzonase nuclease (250 U/μL) and Protease inhibitor cocktail from SIGMA. After ultracentrifugation, the clarified sample was purified by a His-tag affinity chromatography followed by size-exclusion chromatography, using an AKTA FPLC system, at 4° C. To evaluate the purity and homogeneity of the protein, after each purification step, eluted d fractions were analyzed by SDS-PAGE and the protein quantification was always determined by Bradford protein assay.
IC50 evaluation: on a Tecan—SUNRISE, probe 13 was tested in a serial dilution series from 200 μM to 3, 125 μM, against all the three isoenzymes. The recipe of reaction buffer was: 20 mM Tris HCl pH=8, 150 mM KCl, 1 mM B-mercaptoethanol, 500 μM NAD^+, 15% DMSO fixed, 20 mM acetaldehyde and 2.7 μM each isoenzyme. The analysis was conducted measuring the NADH formation, that has a specific absorbance wavelength (340 nm). The test was performed in triplicate with all the three isoenzymes.

[2] = system: U87MG glioblastoma (ALDH1A3+); test: Confocal fluorescence of probes in cell lines; format: cell-based, human; details: 10 μM to 100 nM, after 2 h
Description: All 3 enzymes belonging to the subfamily 1A of aldehyde dehydrogenases were expressed recombinantly in bacterial cells and purified to homogeneity. The pure enzymes were then used to study the interaction with the molecules according to the invention, using various in vitro biochemical assays. In particular, the affinity for the isoenzymes of the selected molecules was measured through the use of a TECAN SPARK and a TECAN SUNRISE. Fluorescence assays were performed in the presence of different protein concentrations and the activity assays were conducted by measuring NAD^+ consumption. According to their specific activity, all molecules were characterized by values of KD, KM, Ki and IC50, showing a net selectivity in specifically binding the ALDH1A3 enzyme. […]
Human U87MG glioblastoma were used as ALDH1A3+ cell lines, HEK293T as ALDH1A2+ cell line, human foetal astrocytes (hASTRO) as ALDH1A1+ cell line and 4T1 mammary carcinoma as triple negative ALDHIA subfamily (checked with Western Blot analysis and RT-PCR). […] Moreover, we incubated the two probes with cells and analyzed with FACS and we observed a significant positivity in U87MG cells, too.

[3] = system: 4T1 mammary carcinoma (triple negative ALDH1A subfamily); test: Confocal fluorescence of probes in cell lines; format: cell-based; details: 4T1, 10 μM to 100 nM
Description: (§2) All 3 enzymes belonging to the subfamily 1A of aldehyde dehydrogenases were expressed recombinantly in bacterial cells and purified to homogeneity. The pure enzymes were then used to study the interaction with the molecules according to the invention, using various in vitro biochemical assays. In particular, the affinity for the isoenzymes of the selected molecules was measured through the use of a TECAN SPARK and a TECAN SUNRISE. Fluorescence assays were performed in the presence of different protein concentrations and the activity assays were conducted by measuring NAD^+ consumption. According to their specific activity, all molecules were characterized by values of KD, KM, Ki and IC50, showing a net selectivity in specifically binding the ALDH1A3 enzyme. The probes having curcumin and recognizing the ALDH1A3 enzyme were tested in a cellular context, using four different cell lines classified by the presence or absence of the isoform studied: human glioblastoma line (U87MG, ALDH1A3 positive), embryonic kidney cell line (HEK293T, ALDH1A2 positive), human astrocyte line (hAstro, ALDH1A1 positive) and a breast cancer line (4T1, ALDHIA negative). […] The binding ability of the probes to these cell lines was also verified and confirmed by flow cytometry.
(§3) Human U87MG glioblastoma were used as ALDH1A3+ cell lines, HEK293T as ALDH1A2+ cell line, human foetal astrocytes (hASTRO) as ALDH1A1+ cell line and 4T1 mammary carcinoma as triple negative ALDHIA subfamily (checked with Western Blot analysis and RT-PCR). All these cell lines were incubated with Probe 14 and 13 at different concentrations (from 10 μM to 100 nM). At all these concentrations we observed a selectivity of probe 14 and 13 on U87MG cells after 2 h, that appeared to be cytoplasmic, no signal has been verified in HEK293T, hASTRO and 4T1 cell lines. Moreover, we incubated the two probes with cells and analyzed with FACS and we observed a significant positivity in U87MG cells, too.

[4] = system: HEK293T (ALDH1A2+); test: Confocal fluorescence of probes in cell lines; format: cell-based; details: 10 μM to 100 nM
Description: as §2, §3

[5] = system: human foetal astrocytes (hASTRO, ALDH1A1+); test: Confocal fluorescence of probes in cell lines; format: cell-based; details: 10 μM to 100 nM
Description: as §2, §3

[6] = target: T2, ALDH1A3 (Homo sapiens, UniProt P47895); test: Ki evaluation, competitive inhibition vs acetaldehyde, NADH formation; format: biochemical; details: competitive vs acetaldehyde 1-20 mM
T2 construct: His-tag; made in house; host or cells: bacterial cells
T2 sequence (P47895 1-512): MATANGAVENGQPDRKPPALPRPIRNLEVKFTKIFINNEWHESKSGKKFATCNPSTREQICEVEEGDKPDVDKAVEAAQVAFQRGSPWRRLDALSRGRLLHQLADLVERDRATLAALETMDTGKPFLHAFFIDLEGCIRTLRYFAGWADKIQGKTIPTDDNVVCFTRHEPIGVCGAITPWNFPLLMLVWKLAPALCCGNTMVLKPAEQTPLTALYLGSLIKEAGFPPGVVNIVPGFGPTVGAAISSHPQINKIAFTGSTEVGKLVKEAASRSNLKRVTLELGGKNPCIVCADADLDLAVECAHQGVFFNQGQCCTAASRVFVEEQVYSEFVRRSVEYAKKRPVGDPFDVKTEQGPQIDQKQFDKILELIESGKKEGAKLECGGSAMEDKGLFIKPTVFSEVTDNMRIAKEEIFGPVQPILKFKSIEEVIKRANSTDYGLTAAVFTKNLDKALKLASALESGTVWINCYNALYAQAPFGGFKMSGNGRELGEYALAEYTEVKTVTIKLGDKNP
Description: as §1
Ki evaluation: on a Tecan—SUNRISE, probe 13 was tested as a possible competitive inhibitor, at a variable concentration (200, 100, 50, 10, 1 and 0 μM). In the same plate, different the acetaldehyde was tested at concentrations (1, 2.5, 5, 10, 15 and 20 mM) to describe the competitive mechanism. The recipe of the buffer reaction was the same as described before. The analysis was conducted measuring the NADH formation, that has a specific absorbance wavelength (340 nm). The test was performed in triplicate only with the ALDH1A3.

| IC50 [1] [µM] | Ki [6] [µM] | Structure (SMILES) | fluorescence signal in cells [2] | fluorescence signal in cells [3] | fluorescence signal in cells [4] | fluorescence signal in cells [5] |
| --- | --- | --- | --- | --- | --- | --- |
| 114 | – | CCOC(=O)Cn1cc(COc2ccc(/C=C/C(O)=C/C(=O)/C=C/c3ccc(O)c(OC)c3)cc2OC)nn1 [Compound 14] | selectivity | no signal | no signal | no signal |
| 196 | 0.9 | COc1cc(/C=C/C(=O)/C=C(O)/C=C/c2ccc(OCc3cn(CCOc4ccc(C=O)cc4)nn3)c(OC)c2)ccc1O [Compound 13] | selectivity; also recorded: selectively illuminate cells expressing only ALDH1A3 | no signal | no signal | no signal |
